Data as given in patent publication US20180020667A1, “CHEMICAL COMPOSITIONS THAT PRESENT SYNERGIC EFFECT FOR […] INSECTS IN PERSONAL HYGIENE PRODUCTS, COSMETICS FOR HUMAN USE, IN ANIMALS AND ON INANIMATE SURFACES IN GENERAL” (Universal Chemical Ltda., priority 2016, published 2018).
Like-named read-outs stand apart in the source and are kept apart here.

What was measured:
[1] = system: insects; test: Length of protection against insect bites after application on the skin (conducted tests); assay type: in vivo
Excerpt: Icaridin and DEET are employed in this synergic mixture as active ingredient.

[2] = system: insects; settings: cited from earlier work
[3] = 5% active ingredient in the repellent
[4] = 10% active ingredient in the repellent
[5] = 15% active ingredient in the repellent
[6] = 20% active ingredient in the repellent

Compound | Length of protection against insect bites ([1]; 10% concentration in the insect repellent) [h] | Length of protection against insect bites ([1]; 20% concentration in the insect repellent) [h] | Repellent Capacity Length of Protection [2, 3] [h] | Repellent Capacity Length of Protection [2, 4] [h] | Repellent Capacity Length of Protection [2, 5] [h] | Repellent Capacity Length of Protection [2, 6] [h] | Length of protection against insect bites ([2]; concentrations between 20 to 25%) | Length of protection against insect bites ([1]; 7% concentration in the insect repellent) [h] | Length of protection against insect bites ([1]; 50% concentration in the insect repellent) [h] | Repellent Capacity Length of Protection ([2]; 50% active ingredient in the repellent) [h] | Length of protection against insect bites ([2]; concentration of 50%) [h]
CCC(C)OC(=O)N1CCCCC1CCO (stereo not drawn) [Icaridin, 1-piperidinecarboxylic acid, 2-(2-hydroxyethyl)-, 1-methylpropyl ester] | 4 | 10 | 1.5 | 4 | 7 | 10 | up to 10 hours | – | – | – | –
N,N-dimethyl-3-methylbenzamide [DEET] | – | – | 1 | 2 | 4 | 6 | – | 2 | 10 | 10 | 10
